Source: US6479466B1, “Compositions for treating viral infections, and methods therefor” (University of Maryland, priority 1999, dated 2002)

Legend:
HIV-1SF162 = assay: p24 antigen production in monocyte-derived macrophages infected with HIV-1SF162; type: cell-based; details: for virus production after drug removal on day 20: 10 μM ddI with or without 10 μM RV, 14 further days
Protocol: MDMs were prepared as described infra, and infected with the SF162 strain of HIV-1 obtained from Dr. Levy at the National Institutes of Health AIDS Research and Reference Reagent Program (Rockville, Md.). Briefly, 25×10^6 freshly isolated PBMCs were cultured for 5 days in T-25 flasks (Coming Costar, Cambridge, Mass.) containing culture medium supplemented with 20% FBS and 10% AB human serum (Gemini Bioproducts, Inc., Calabasas, Calif.). On day 5, non-adherent cells were removed by washing five times with warm RPMI/10%FBS medium. Adherent cells in representative flasks were counted by trypan blue exclusion. By morphology and cytochemical staining for nonspecific esterase (Sigma), more than 97% of cells were macrophages. HIV infection was carried out by adding virus to the flask at a multiplicity of infection of 2000 TCID50/10^6 adherent cells and incubating for 3 hours. Flasks were then washed 3 times with warm RPMI/10%FBS medium and cultured in RPMI containing 20% FBS plus drugs. Every 3 days culture supernatants were collected and fresh medium containing drugs was added to each flask. Virus replication was assayed weekly for p^24 antigen production as described in Example 1 in the supernatant. Cultures were maintained for 3 weeks.
For the present example, cultures were maintained in the presence of 10 μM RV and varying concentrations of ddI. The amount of p24 antigen produced in the supernatant was measured on days 7 and 16 after infection. […] However, a 10-fold or greater potentiation of ddI-antiviral activity was observed when the nucleoside analogue was combined with 10 μM RV.
MDMs derived from 2 seronegative donors were infected with the SF 162 strain of HIV-1 and cultured in the presence of 10 μM ddI, a plasma level attainable in treated individuals. The anti-HIV effect of this concentration of ddI was investigated in the presence or absence of 10 μM RV. DdI alone (10 μM) inhibited viral replication by more than 90% in both donors on day 7 after infection. […] The strong antiviral activity achieved by RV plus ddI on day 16 was further analyzed by removing the drugs from the culture. The drugs were then removed on day 20 and the macrophages maintained in culture for an additional 14 days. In donor #1 MDMs, a virus rebound followed drug removal in the cultures that had been exposed to ddI alone.

PHA-stimulated PBMCs = assay: MTT cell proliferation assay in PHA-stimulated PBMCs; type: cell-based, human
Protocol: The effect of RV and […] on PBMC proliferation at the concentrations shown to enhance the anti-HIV effect of ddI were examined. Cellular proliferation in culture in the presence or absence of drugs was measured by commercial MTT assay, according to the manufacturer's instructions (Boehringer Mannheim). Cell viability was determined by trypan blue staining.
Proliferation was measured on PHA-stimulated PBMCs cultured in the presence of IL-2, 2 μM ddI, and RV or HU. The MTT assay was performed on days 2 and 5 (FIG. 8), and days 2 and 7 (FIG. 20) after the addition of the drugs. […] On day 5, RV at 10 μM inhibited proliferation by 30%, whereas HU inhibited proliferation by 40 to 50%, depending on the donor.
Proliferating PBMCs were cultured in the presence of RV or HU for 5 days. On day 2 and 5 an MTT assay and a ^3H-thymidine incorporation assay were performed. The MTT is a […] assay that measures cellular metabolic activity and directly correlates to the number of cells in the culture. The ^3H-thymidine incorporation assay relies on the incorporation of the radioactive nucleoside ^3H-thymidine into newly synthesized DNA. […] These differences between the effects of RV and HU were even more striking in the MTT and ^3H-thymidine incorporation assays conducted on day 5 (FIG. 12 and FIG. 13, respectively).

[1] = test system: HIV-1RTMDR1 isolate (M41L, L74V, V106A and T215Y); assay: p24 antigen in activated PBMCs infected with isolate RTMDR1; type: cell-based
Excerpt: (§1) The present example provides data to test whether viral isolates carrying mutations in the RT gene that confer resistance to ddI could be rendered sensitive when the nucleoside analogue was combined with RV. Viruses containing one or more of the mutations associated with resistance to ddI, e.g., an isolate carrying the L74V mutation which confers primary resistance to ddI, a virus isolate carrying 4 different resistance-associated mutations in the RT gene (HIV-1 RTMDR1) were used to infect PHA-stimulated PBMCs. The HIV-174V isolate, and the HIV-1RTMDR1 isolate (containing the M41L, L74V, V106A and T215Y mutations, conferring resistance to AZT, ddI, nevirapine and other non-nucleotide RT inhibitors) were obtained from Dr. Larder at the National Institutes of Health AIDS Research and Reference Reagent Program (Catalog #2528 and #2529, respectively, Rockville, Md.). In addition, viruses having mutations 65R, 74V, 184V in the RT gene, and a virus containing the multiple-nucleoside-resistance mutation 151M were assayed in infectivity assays using RV plus ddI. The mutations present in the RT gene of each virus as well as their susceptibility to ddI are as follows: HIV-174V(ddIIC90=2.6 μM); HIV-141L, 74V, 106A, 215Y (ddIIC90=4.5 μM); HIV-165R, 74V, 184V (ddIIC90>20 μM) and HIV-162V, 751, 77L, 151M (ddIIC90>20 μM). […]

HIV-165R, 74V, 184V = assay: p24 antigen in activated PBMCs infected with isolate 65R, 74V, 184V; type: cell-based, HIV-1; details: Human immunodeficiency virus 1, PBMC, read-out: ddI IC90
Excerpt: as §1

HIV-162V, 751, 77L, 151M = assay: p24 antigen in activated PBMCs infected with isolate 62V, 75I, 77L, 151M; type: cell-based, HIV-1; details: Human immunodeficiency virus 1, PBMC, read-out: ddI IC90
Excerpt: as §1

| SMILES | anti-HIV effect (HIV-1SF162; RV 10 μM in the absence of ddI, 2 donors) | impact on cell proliferation (PHA-stimulated PBMCs; 5 μM RV, with IL-2 and 2 μM ddI) | OD values in the MTT assay (PHA-stimulated PBMCs; 10 μM RV, day 7, with IL-2 and 2 μM ddI) | MTT values (PHA-stimulated PBMCs; RV 10 μM, day 2, no ddI) | inhibition of proliferation (PHA-stimulated PBMCs; RV 10 μM, day 2, with IL-2 and 2 μM ddI) | inhibition of proliferation (PHA-stimulated PBMCs; RV 10 μM, day 5, with IL-2 and 2 μM ddI) | inhibition at 10 µM (HIV-1SF162; Human immunodeficiency virus 1, Macrophage, 168 h, ddI alone 10 μM, both donors, day 7, read-out: inhibition of viral replication) | virus production after drug removal on day 20 (HIV-1SF162; donor #1 MDMs) | virus production after drug removal on day 20 (HIV-1SF162; donor #2 MDMs) | suppression of viral replication ([1]; 2 μM ddI alone) | IC90 ([1]; Human immunodeficiency virus 1, PBMC, read-out: ddI IC90) | IC90 (HIV-165R, 74V, 184V) | IC90 (HIV-162V, 751, 77L, 151M) |
| --- | --- | --- | --- | --- | --- | --- | --- | --- | --- | --- | --- | --- | --- |
| Oc1ccc(/C=C/c2cc(O)cc(O)c2)cc1 [RV, trans-3, 4′, 5-trihydroxystilbene] | only a modest anti-HIV effect | Minimal impact on cell proliferation | higher than those obtained with 100 μM HU | slightly lower than the untreated control | inhibited proliferation slightly | 30% | – | – | – | – | – | – | – |
| OC[C@@H]1CC[C@H](n2cnc3c(O)ncnc32)O1 [ddI, 2′,3′-dideoxyinosine] | – | – | – | – | – | – | > 90% | virus rebound | continued releasing virus | 34% | 4.5 µM | > 20 µM | > 20 µM |
